Patent publication US20200345689A1, “METHODS AND CO[…] RRx-001 FOR RADIOPROTECTION” (EpicentRx, Inc., priority 2018, published 2020)

Columns and labels:
[1] = system: SOD1 and 2; assay: Western blot of ARE protein expression in hMSC: SOD1 and 2; format: cell-based, human; conditions: 5 mM RRx-001 for 16 hours, 8 hours after 10 Gy irradiation
Procedure: Antioxidant response element (ARE) genes such as heme oxygenase 1 (HO-1), NAD(P)H Dehydrogenase [Quinone] 1 (NQO-1) and Superoxide Dismutase (SOD) are involved in the detoxification and elimination of reactive oxidants.
(§1) Expression of ARE proteins was assayed in hMSC, macrophages, and monocytes following in vitro irradiation of the cells, which were pretreated with RRx-001 or vehicle. Protein expression was assayed by Western blotting and protein quantification.
(§2) hMSC were treated for 16 hours with […] RRx-001 or the vehicle control (0.05% DMSO), irradiated at 10 Gy or sham-irradiated and the protein collected 8 or 24 hours post-sham or irradiation. Human monocytic leukemic THP-1 and U937 cells were differentiated into macrophages with 50 nM Phorbol 12-myristate 13-acetate (PMA) for 24 hours before treatment. Differentiated and non-differentiated cells were treated with […] RRx-001 or 0.05% DMSO (vehicle control) for 16 hours prior to radiation. The cells were irradiated at 5 Gy or sham-irradiated and collected 4-8 hours later for both analysis. For each experiment, duplicates of each sample were run.

[2] = system: HO-1; assay: Western blot of HO-1 in THP-1 monocytes and macrophages; format: cell-based, human; conditions: THP-1 macrophages, 3 mM RRx-001 for 16 hours
Procedure: as §1, §2

[3] = system: human monocytic leukemic THP-1 cells; assay: Cytokine array of irradiated THP-1 monocytes and macrophages; format: cell-based
Procedure: A cytokine array was employed to examine cytokine expression following in vitro irradiation of human monocytic leukemic THP-1 cells. THP-1 cells were differentiated into macrophages with 50 nM Phorbol 12-myristate 13-acetate (PMA) for 24 hours before treatment. Differentiated and non-differentiated cells were treated with […] RRx-001 or 0.05% DMSO (vehicle control) for 16 hours prior to radiation. The cells were irradiated at 5 Gy or sham-irradiated and collected 4-8 hours later for both analysis. For the cytokine analysis, cell media was collected and blotted onto Proteome Profiler Human Cytokine Arrays (R&D Systems, Inc.) according to the manufacturer's protocol.

[4] = system: bone marrow; assay: Histopathology of sternal bone marrow (cellularity grade, megakaryocytes) after sublethal TBI or sham irradiation; format: in vivo, mice
Procedure: To determine the pathophysiological effects of RRx-001 on hematopoietic protection in mice, CD2F1 male mice were treated with 10 mg/kg RRx-001 or the vehicle control 24 hours prior to a sublethal dose of TBI (7 Gy at 0.6 Gy/min using High-level Cobalt-60) or sham irradiation (day 0) according to the table below.
CD2F1 male mice (n=3/group) were divided into 4 experimental groups: 1) irradiation+vehicle, 2) irradiation+RRx-001, 3) sham-irradiation+vehicle and 4) sham-irradiation+RRx-001. Either 10 mg/kg RRx-001 or the vehicle control were IP injected 24 hours prior to either irradiation or sham-irradiation (day 0). On days 2, 7, 14, 21, and 28 post-irradiation (day 0) mice were humanely euthanized. Blood, bone marrow, and sternebrae were then collected. This experiment was performed in duplicate for a total of n=6 mice/group/time point.
Sternebrae from euthanized mice (n=6/group/time point) were collected on days 2, 7, 14, 21 and 28 post-irradiation. Sternebrae were fixed in 10% zinc-buffered formalin for at least 24 hours and up to 7 days. Fixed sternebrae were decalcified for 3 hr in 12-18% sodium EDTA (pH 7.4-7.5) and specimens dehydrated using graded ethanol concentrations and embedded in paraffin. Longitudinal 4μm sections were stained with regular hematoxylin and eosin. Two board-certified pathologist conducted histopathological evaluation of the samples. One of the pathologist scored all the samples blindly. Bone marrow was evaluated in situ within sternebrae and graded (Grade 1: <10%; Grade 2: 11-30%; Grade 3: 31-60%; Grade 4: 61-89%; Grade 5: >90%) for total cellularity. Megakaryocytes were also quantified based on the average per 10 high power fields (HPF) at 400× magnification using a BX43 or BX53 microscope (Olympus, Minneapolis, Minn.). Images were captured with an Olympus DP22 camera and imported into Olympus Cellsens Standard software for review.
Blood parameters were compared between treatment groups using an analysis of variance (ANOVA). The Wilcoxon test was also used for sensitivity and to potentially address data departures from normality. A longitudinal mixed model repeated measures was also implemented to provide a more complete data analysis of the sham-irradiated treatment groups' difference in overall time profile mean based on the blood parameters. Bone marrow data (megakaryocytes and grade) statistical analysis was carried out using a parametric test consisting of a general linear model analysis of variance (ANOVA with factors consisting of treatment group and pathologist) and the Kruskal-Wallis nonparametric test. The statistical data analysis was carried out using R software (Version 3.4.3, 2016) and the graphs made using GraphPad Prism version 7.03 (GraphPad Software, La Jolla, Calif.).
To determine the effect of RRx-001 on bone marrow, a histopathological analysis of bone marrow sternebrae was performed and the cellularity, as reported by grade (grade 1: <10%; grade 2: 11-30%; grade 3: 31-60%; grade 4: 61-89%; grade 5: >90% cellularity), and megakaryocyte numbers (averaged per 10 high-powered fields; HPF) were ascertained by two pathologists, one of which scored all the samples blindly (TAS, WEC).

[5] = system: superoxide dismutase; assay: Superoxide dismutase activity assay in hMSC; format: cell-based, human; conditions: 5 mM RRx-001 for 16 hours, 8 hours after 10 Gy irradiation
Procedure: The activity of superoxide dismutase activity was also assayed in hMSC. hMSC were treated for 16 hours with […] RRx-001 or vehicle, irradiated at 10 Gy or sham-irradiated and whole cell homogenate collected according to the manufacture's protocol. The assay measures the activity of all three forms of SOD. The amount of SOD activity (U/mL) was normalized to protein levels.

O=C(CBr)N1CC([N+](=O)[O-])([N+](=O)[O-])C1 [RRx-001, 2-bromo-1-(3,3-dinitroazetidin-1-yl)ethan-1-one]
SOD1 and 2 expression [1]: slight increase
HO-1 expression [2]: no significant increase in HO-1
cytokine expression (cytokine array) ([3]; THP-1 macrophage fraction, 3 mM RRx-001 for 16 hours, sham and 5 Gy irradiated): reduction in cytokines involved in inflammation
CCL5/RANTES expression (cytokine array) ([3]; THP-1 monocytes, 3 mM RRx-001 for 16 hours): induction
pro-inflammatory chemokine IL-8 ([3]; macrophages): reduction
bone marrow cellularity compared to the vehicle control ([4]; 7 Gy TBI, 10 mg/kg IP 24 hours prior, day 7): slight increase in cellularity
hematopoietic recovery as determined by the grade of bone marrow cellularity compared with control ([4]; 7 Gy TBI, 10 mg/kg IP 24 hours prior, day 14): significantly accelerated hematopoietic recovery
number of megakaryocytes ([4]; 7 Gy TBI, 10 mg/kg IP, between days 7-28): steady increase
number of megakaryocytes ([4]; 7 Gy TBI, 10 mg/kg IP, day 2): reduced
number of megakaryocytes ([4]; 7 Gy TBI, 10 mg/kg IP, day 7): severely depleted
bone marrow cellularity grade ([4]; after irradiation (7 Gy TBI), 10 mg/kg IP 24 hours prior): 1 (grade 1: <10%)
number of megakaryocytes ([4]; sham-irradiated, 10 mg/kg IP, day 14, vs vehicle control): significantly higher than the vehicle control
overall cellularity of the bone marrow ([4]; sham-irradiated, 10 mg/kg IP, duration of the study): ≥ 90%
bone marrow cellularity grade ([4]; sham-irradiated, 10 mg/kg IP, duration of the study (days 2-28)): 5 (grade 5: >90% cellularity)
Superoxide Dismutase Activity [5]: did not increase
